# Experimental data: patent US9140688B2, “Sperm staining and sorting methods” (INGURAN, LLC, priority 2011, dated 2015)
# Experiments:
# elk sperm [1] = assay: Post thaw motility of bulk sorted elk sperm (Example 3); format: cell-based; settings: 0 HR; RED TALP with 16 μL, Y6 with 14 μL Hoechst 33342
# Description: (§1) Each of deer and elk were collected in the Tris-egg yolk catch fluid described as a catch media in Example 1, and shipped for sorting.
# (§2) A portion of each of the deer and the elk were stained by the red food dye No. 40 treatment 40% with 16 μL Hoechst 33342 and the yellow food dye No. 6 treatment with 14 μL Hoechst 33342 as described in Example 1.
# (§3) Samples were each bulk sorted with the same machine and parameters described in Example 1. Both sorted X and sorted Y sperm were collected into a single catch. The sorted samples were then frozen like those described in Example 1.
# (§4) Frozen thawed samples were then tested for post thaw motilities and post thaw DNA fragmentation. Post thaw motilities were slightly higher in Elk sorted with a yellow quencher, while a more significant difference existed in progressive motility. In Table 10, post thaw DNA fragmentation in Elk can be seen at about double after 48 hours when red food dye No. 40 is compared to yellow food dye No. 6 as a dead quencher.
# [2] = tested on: X- and Y-chromosome bearing bovine sperm stained with Hoechst 33342; assay: Split quality: height of peak divided by height of valley (PV), flow cytometry of stained bovine sperm; format: cell-based; settings: for Height of Peak/Height of Valley: Ex 5
# [3] = tested on: membrane compromised bovine sperm stained with Hoechst 33342; assay: Dead quenching: dead gate intensity divided by live gate intensity, flow cytometry of stained bovine sperm; format: cell-based; settings: for Dead Intensity (dead gate intensity divided by live gate intensity): Ex 5
# Summary of the method: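 Bovine sperm stained with Hoechst 33342 (48–64 μM effective) in pH 7.4 TALP at 34° C for 60 min, then mixed 1:1 with pH 5.60 TALP containing quenching dye and held ~30 min at room temperature. Read on a MoFlo SX sorter; value is dead gate intensity divided by live gate intensity as a percentage, lower meaning more quenching.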
# [4] = solvent water; shorter-wavelength local maximum; cited from earlier work
# deer sperm = assay: Post thaw motility of bulk sorted deer sperm (Example 3); format: cell-based; settings: 0 HR; RED TALP with 16 μL, Y6 with 14 μL Hoechst 33342
# Description: as §1, §2, §3, §4
# elk sperm [5] = assay: Post thaw DNA fragmentation of elk sperm (Example 3); format: cell-based; settings: elk
# Description: as §1, §2, §3, §4
# [6] = dye 62.5 μM, Hoechst 12 μL/2 mL
# [7] = dye 62.5 μM, Hoechst 14 μL/2 mL
# [8] = dye 62.5 μM, Hoechst 16 μL/2 mL
# [9] = Ex 6, dye 62.5 μM, resulting pH 6.70, Hoechst 48 μM
smiles,measurement,setting,value
"COc1cc(S(=O)(=O)O)c(C)cc1N=Nc1c(O)ccc2cc(S(=O)(=O)O)ccc12 [Red 40, 6-hydroxy-5-[(2-methoxy-5-methyl-4-sulfophenyl)azo]-2-naphthalenesulfonic acid, reference compound]","Post Thaw Motility Elk, Motile",elk sperm [1],51.0
same,"Post Thaw Motility Elk, Progressive",elk sperm [1],29.0
same,Height of Peak/Height of Valley,"[2]; dye 25 μM, Average of 12 and 14 μL series",2.00
same,Height of Peak/Height of Valley,"[2]; dye 25 μM, Hoechst 12 μL/2 mL",2.05
same,Height of Peak/Height of Valley,"[2]; dye 25 μM, Hoechst 14 μL/2 mL",1.94
same,Height of Peak/Height of Valley,"[2]; dye 25 μM, Hoechst 16 μL/2 mL",1.00
same,Height of Peak/Height of Valley,"[2]; dye 62.5 μM, Average of 12 and 14 μL series",1.64
same,Height of Peak/Height of Valley,[2]; [6],1.65
same,Height of Peak/Height of Valley,[2]; [7],1.62
same,Height of Peak/Height of Valley,[2]; [8],1.00
same,Height of Peak/Height of Valley,"[2]; dye 125 μM, Average of 12 and 14 μL series",1.88
same,Height of Peak/Height of Valley,"[2]; dye 125 μM, Hoechst 12 μL/2 mL",1.75
same,Height of Peak/Height of Valley,"[2]; dye 125 μM, Hoechst 14 μL/2 mL",2.00
same,Height of Peak/Height of Valley,"[2]; dye 125 μM, Hoechst 16 μL/2 mL",1.21
same,PV,[2]; [9],1.00
same,PV,"[2]; Ex 8, Bull 1, Hoechst 60 μM, R40 20 μM alone",1.62
same,PV,"[2]; Ex 8, Bull 2, Hoechst 44 μM, R40 20 μM alone",1.54
same,PV,"[2]; Ex 9, Bull 3, Hoechst 60 μM, R40 50 μM, R3 0 μM",1.44
same,Dead Intensity (dead gate intensity divided by live gate intensity),"[3]; dye 25 μM, Average of Hoechst levels",68%
same,Dead Intensity (dead gate intensity divided by live gate intensity),"[3]; dye 25 μM, Hoechst 12 μL/2 mL",68%
same,Dead Intensity (dead gate intensity divided by live gate intensity),"[3]; dye 25 μM, Hoechst 14 μL/2 mL",72%
same,Dead Intensity (dead gate intensity divided by live gate intensity),"[3]; dye 25 μM, Hoechst 16 μL/2 mL",65%
same,Dead Intensity (dead gate intensity divided by live gate intensity),"[3]; dye 62.5 μM, Average of Hoechst levels",52%
same,Dead Intensity (dead gate intensity divided by live gate intensity),[3]; [6],53%
same,Dead Intensity (dead gate intensity divided by live gate intensity),[3]; [7],53%
same,Dead Intensity (dead gate intensity divided by live gate intensity),[3]; [8],50%
same,Dead Intensity (dead gate intensity divided by live gate intensity),"[3]; dye 125 μM, Average of Hoechst levels",38%
same,Dead Intensity (dead gate intensity divided by live gate intensity),"[3]; dye 125 μM, Hoechst 12 μL/2 mL",37%
same,Dead Intensity (dead gate intensity divided by live gate intensity),"[3]; dye 125 μM, Hoechst 14 μL/2 mL",41%
same,Dead Intensity (dead gate intensity divided by live gate intensity),"[3]; dye 125 μM, Hoechst 16 μL/2 mL",35%
same,Intensity (dead gate),[3]; [9],53%
same,Expected Absorption Maxima,[4],505 nm
same,"Post Thaw Motility Deer, Motile",deer sperm,59.8
same,"Post Thaw Motility Deer, Progressive",deer sperm,43.0
same,"Post Thaw DNA fragmentation Elk, Post Sort",elk sperm [5]; 0 h,0%
same,"Post Thaw DNA fragmentation Elk, Pre-sort",elk sperm [5]; 0 h,2.3%
same,"Post Thaw DNA fragmentation Elk, Post Sort",elk sperm [5]; 24 h,0.3%
same,"Post Thaw DNA fragmentation Elk, Pre-sort",elk sperm [5]; 24 h,5.6%
same,"Post Thaw DNA fragmentation Elk, Post Sort",elk sperm [5]; 48 h,0.7%
same,"Post Thaw DNA fragmentation Elk, Pre-sort",elk sperm [5]; 48 h,6%
